The results in this text go back to patent US20240041898A9, “NEUROSTEROIDS AND ENANTIOMERS THEREOF FOR THE PREVENTION AND TREATMENT OF NEURODEGENERATIVE CONDITIONS” (priority 2019, published 2024).

Data set [1] relates to pressure-loaded ex vivo rat retinas. The format is cell-based. Conditions: for retinal morphology with 3-MA alone: 10 mM. The method, then:
(§1) Rat ex vivo Eyecup Preparation—Rat ex vivo eyecups were prepared from 28-32 day old male Sprague-Dawley rats (Charles River Laboratories International Inc., Wilmington, MA). The anterior half of the enucleated eyes was carefully removed to make eyecup preparations. Eyecups were placed at the bottom of a 100 ml glass beaker filled with aCSF (artificial cerebrospinal fluid) containing (in mM): 124 NaCl, 5 KCl, 2 MgSO4, 2 CaCl2, 1.25 NaH2PO4, 22 NaHCO3, and 10 glucose, and incubated at 30° C. for 24 hours using a closed pressure-loading system (FIG. 1C). pH was maintained at 7.35 to 7.40. In the closed-pressure system, a glass beaker with the eyecup was placed at the bottom of an acrylic pressure chamber (2,000 ml volume). A 95% O2-5% CO2 gas mixture was delivered through disposable plastic tubing with an infusion valve and a control dial on the lid of the pressure chamber and an air filter (Cat #SLGP033RS, Merck Millipore, Billerica, MA). The plastic tubing delivering the gas terminated 1 cm above the bottom of the beaker.
(§2) Acutely prepared eyecups were incubated in gassed aCSF for at least 1 h at 30° C. before pressure loading. In some experiments, AlloP (1 μM), ent-AlloP (1 μM), and 3-MA (10 mM) were dissolved in aCSF at the time of experiment and administered by bath perfusion. Eyecup preparations were treated with these drugs for 1 h at 30° C. before pressure loading. For pressure loading, the 95% O2-5% CO2 gas mixture was infused until the pressure reading given by a manometer reached the appropriate level. The pressure was then locked by adjusting the control dial of the effusion valve, and monitored continuously for 24 h at 30° C.
Data analysis of morphometry—The middle portion of the retina was examined, greater than 1,200 μm away from the center of the optic disc along the inner limiting membrane (ILM). The nerve fiber layer thickness (NFLT) was measured by light microscopy along 5 lines perpendicular to the pigment epithelium at a distance of 15 μm from each other around 1,200 μm away from the center of the optic disc. The average NFLT was determined in 9 different light micrographs taken from 5 eyecup samples in each condition, divided by total retinal thickness, and mean±standard deviation (%) was analyzed and compared with control.
The density of degenerated cells characterized by nuclear chromatin clumping or necrosis in the GCL was determined by counting 9 fields of 500 μm length in light micrographs taken from the block of the middle retinal part 950 to 1450 μm away from the center of the optic disc.
The severity of neuronal damage was assessed by light microscopy using a neuronal damage score (NDS). The NDS was determined in 9 different light micrographs taken from 5 eyecup samples in each condition. The NDS rates neuronal damage in the inner nuclear layer (INL) and the inner plexiform layer (IPL) on a 0-4 scale with 0 signifying no neuronal damage and 4 indicating very severe damage. Criteria used in establishing the degree of neuronal damage included the extent of cytoplasmic swelling in the IPL and the number of neurons in the INL showing signs of severe cytoplasmic swelling and coarse clumping of nuclear chromatin. The highest NDS rating (4) is given when the IPL discloses apparent spongiform appearance due to dendritic swelling and when most cell bodies in the INL show severe cytoplasmic swelling and coarse clumping of nuclear chromatin. If the damage is of a lesser degree, a rating of 3 is given. NDS 2 is assigned when cell bodies in the INL are sporadically swollen. […] Fine dendritic swelling in a limited area of the IPL without damage in the INL is described by NDS 1.
NFLT, density of degenerated cells in the GCL, and NDS were determined as the measurement of 10 different areas from three eyes per experimental condition. These morphometrical parameters were assessed by three raters, who remained unaware of the experimental condition. […]

The test system of the next data set is LC3-II. The data set is described as follows: Ex vivo pressure-loaded retinas, Western blot of LC3-II. Type of data set: cell-based, rat. Conditions: 10 mM 3-MA, 1 μM ent-AlloP, 75 mmHg. As for the experimental part: as §1, §2
(§3) Western Blot Analysis—At the end of each experiment, the posterior segments of the eye were placed on a flat cutting surface and immersed in ice-cold aCSF. With a surgical blade, the retina was carefully and gently detached from the sclera with a fine forceps. The isolated retinas were frozen at −80° C. Retinas were then homogenized in lysis buffer solution (CelLytic MT; Sigma-Aldrich, Inc.) with protease inhibitor cocktail (Sigma-Aldrich, Inc.), prepared according to the manufacturer's instructions. The tissue extracts were ultrasonicated and clarified by centrifugation at 12,000 g for 20 minutes at 4° C. The protein concentrations in supernatants were assayed (Quant-iT assay kit; Invitrogen Corp., Carlsbad, CA). Twenty micrograms of retinal extract were subjected to SDS polyacrylamide gel electrophoretic analysis. The proteins were then transferred to a PVDF. Immunoblots by polyclonal rabbit anti-LC3B antibody (MBL Life Science) or anti-SQSTMl/p62 mouse monoclonal antibody (Abcam) were visualized using WesternBreeze Chemiluminescent Immunodetection system (Invitrogen) with the exposure time to autoradiograph film (MXJB Plus; Kodak, Rochester, NY) adjusted to avoid over- or undersaturation. Precision Plus Protein™ Western Standards (Bio-Rad, Hercules, CA) followed by Precision Protein™ strep Tactin-AP conjugate (Bio-Rad) was used for a molecular marker of LC3. MagicMark™ XP Western Protein Standard (Invitrogen, Carlsbad, CA) was used for a molecular marker of p62. Immunoblot data are normalized to β-actin levels in the same sample.
The density of Western blot bands was quantified using Image-Pro Plus software. Quantification was adjusted to protein expression at 10 mmHg after normalization to the β-actin band at each pressure, and the relative gray-scale value was calculated by densitometric analysis of the obtained bands. At least four independent experiments were performed for each condition, and the results are presented as relative units numerically. Differences in expression levels were evaluated using Wilcoxon Rank-Sum Test, Tukey's or Dunnett's multiple comparison test. Sample numbers were four to five per each experimental condition.

For another data set, the system named is p62. The data set is described as follows: Ex vivo pressure-loaded retinas, Western blot of p62. The format is cell-based, rat. The settings on record: 10 mM 3-MA, 1 μM ent-AlloP, 75 mmHg. As for the experimental part:
as §1, §2
as §3, with “MagicMark™ XP Western Protein Standard (Invitrogen, Carlsbad, CA) was used for a molecular marker of p62. Immunoblot data are normalized to β-actin levels in the same sample.” left out
The density of Western blot bands was quantified using Image-Pro Plus software. Quantification was adjusted to protein expression at 10 mmHg after normalization to the β-actin band at each pressure, and the relative gray-scale value was calculated by densitometric analysis of the obtained bands. […] Differences in expression levels were evaluated using Wilcoxon Rank-Sum Test, Tukey's or Dunnett's multiple comparison test. […]

Like-named read-outs stand apart in the source and are kept apart here.

Consider `Cn1cnc(N)c2ncnc1-2` [3-MA, 3-methyladenine], for which the “effect of 3-MA on neuroprotection by AlloP” value in data set [1] (10 mM 3-MA + 1 μM AlloP, 75 mmHg) was “did not alter neuroprotection by AlloP”. In data set [1] (10 mM 3-MA + 1 μM ent-AlloP, 75 mmHg), the “effect of 3-MA on the effects of ent-AlloP” value is on record as “dampened the effects of ent-AlloP”. Further, the “retinal morphology with 3-MA alone” value in data set [1] (10 mmHg) and in data set [1] (75 mmHg) was “neurodegenerative” each time. The “effect of 3-MA on upregulation of LC3-II levels induced by ent-AlloP” value in the data set on LC3-II is on record as “dampened”. Further, in the data set on p62, the “effect of 3-MA on the decrease of p62 levels induced by ent-AlloP” value is “reversed”.
In the case of picrotoxin, in data set [1] (1 μM picrotoxin + 1 μM AlloP, hyperbaric conditions (75 mmHg)), the “effect of picrotoxin on the neuroprotective effect of AlloP” value is “overcame the neuroprotective effect of AlloP”. For the same compound, the “effect of picrotoxin on the effects of ent-AlloP” value in data set [1] (1 μM picrotoxin + 1 μM ent-AlloP, 75 mmHg) is “did not alter the effects of ent-AlloP”.
